In brackets after ≈: the same amount, converted by molar mass. Where two headings read alike, the source gives them in different places.
Tests used:
[1] = cited from earlier work
[2] = Flow-through dissolution of TA samples in 20% methanol in water; type: physicochemical; conditions: solvent solution 20% methanol in water
Protocol: Samples were prepared by dispensing 10 mg of sample into 10 mL of a balanced salt solution comprising 1% Tween 80. The sample in solution was then subjected to vigorous shaking and a number of rapid expulsions through a 22 gauge needle. 2 mL of this suspension was then filtered through a […] Durapore membrane filter which retained essentially all of the particles. The filter is then rinsed with 2 mL water.
This method of sample preparation avoids the problem of particles formed of large agglomerations of crystals which appear to dissolve as large crystals and therefore bias results.
Dissolution was performed using a flow through system that pumps a degassed solvent solution of 20% methanol in water through the dissolution chamber at around 11 mL per minute. […] The combination of flow rate and solvent solution dissolves the TA crystals at a rate that enables a flow-through cell to record absorbance values in the acceptable range for virtually all of the 30 minute run time and for the experiment to be completed in a reasonable period. […]
Approximately 2 mg of sample was prepared on a filter as outlined above. […] The absorbance was recorded on a chart recorder with 2 absorbance units causing 100% pen deflection.
Dissolution studies were carried out for a period of 30 minutes with a flow rate of 11 mL per minute. Average absorbance values over 2 minute periods were calculated. […]

[3] = Equilibrium solubility of triamcinolone acetonide in various media (HPLC); type: physicochemical; conditions: thermodynamic from solid, read-out: Triamcinolone acetonide conc. (equilibrium solubility)
Excerpt: An HPLC assay method was developed for TA. This was used to determine the equilibrium solubility for TA in various media. It was considered that a solution of acetonitrile may be advantageous for the maintenance of sink conditions, wherein a large surplus of solvent/absorbant/carrier capacity is maintained.

[4] = tested on: clinically significant macular edema; conditions: intravitreal injection of the usual dose (4 mg); cited from earlier work
[5] = Saline saturated with TA (filter validation stock); type: physicochemical
Protocol: Solutions at 1% and 10% of saturation were prepared from a stock of saline saturated with TA (15 μg/mL). The solutions were filtered through a syringe filter and aliquots (200 μL) of the filtrate were collected. […] Consequently, an 800 μL prefiltration volume (see dissolution method above) was assumed sufficient to ensure that the filtrate concentration was representative of the dissolved TA concentration in the dissolution vessel.

CC1(C)O[C@@H]2CC3C4CCC5=CC(=O)C=CC5(C)[C@@]4(F)C(O)CC3(C)C2(C(=O)CO)O1 (stereo partly shown) [triamcinolone acetonide, 9-fluoro-11,21-dihydroxy-16,17-[1-methylethylidinebis(oxy)]pregna-1,4-diene-3,20-dione]
persistence at measurable concentrations in the vitreous humour ([1]; patients who have not undergone vitrectomy, assuming five half-lives): 93 ± 28 days | mean elimination half-life ([1]; single intravitreal injection, nonvitrectomized patients): 18.6 days | solubility of TA in the solvent solution relative to TA in water alone [2]: 2-3 times | solubility thermodynamic ([3]; 5% Acetonide, aqueous with cosolvent or surfactant or cyclodextrin): 5.2 µg/mL (≈ 12 µM) | solubility thermodynamic ([3]; 10% Acetonide, aqueous with cosolvent or surfactant or cyclodextrin): 9.1 µg/mL (≈ 20.9 µM) | solubility thermodynamic ([3]; 30% Acetonide, aqueous with cosolvent or surfactant or cyclodextrin): 128 µg/mL (≈ 295 µM) | solubility thermodynamic ([3]; distilled water, water): 8.8 µg/mL (≈ 20.3 µM) | solubility thermodynamic ([3]; normal saline, saline or isotonic): 8.2 µg/mL (≈ 18.9 µM) | time after which beneficial effects are diminished [4]: approximately three | concentration of saline saturated with TA [5]: 15000 ng/mL

— US20050192264A1, “Slow release steroid composition” (priority 2004, published 2005)
